Assay [1] deals with T1, first (BD1: amino acids K57-E168) bromodomain of BRD4 (Homo sapiens, UniProt O60885).
T1 construct: His-tagged first (BD1: amino acids K57-E168)
Briefly: TR-FRET bromodomain binding assay, BRD4 BD1. Particulars: Ki calculated from IC50, probe Kd and probe concentration, read-out: TR-FRET Binding Ki: BRD4 (BDI_K57-E168). The method in brief: (§1)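 His-tagged BRD4 BD1 (K57-E168) or BD2 ([…]) displacing an Alexa647-labelled BET-inhibitor probe in 20 mM sodium phosphate pH 6.0, 50 mM NaCl, 1 mM EDTA, 0.01% Triton X-100, 1 mM DTT.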

The target of assay [2] is T2, second (BD2: amino acids E352-E168) bromodomain of BRD4 (Homo sapiens, UniProt O60885).
T2 construct: protocol
Briefly: TR-FRET bromodomain binding assay, BRD4 BD2. Particulars: Ki calculated from IC50, probe Kd and probe concentration, read-out: TR-FRET Binding Ki: BRD4 (BDII_E352-M457). In outline:
as §1

Where [3] appears, read: TR-FRET assay protocol (A-G, compound concentration range).
Where [4] appears, read: TR-FRET assay protocol (D, E or G) per compound.

Like-named read-outs stand apart in the source and are kept apart here.

Regarding `CCS(=O)(=O)Nc1cc(-c2ccc(=O)n(C)c2)c(OCC2CC2)cc1C` [Example 366, N-[4-(cyclopropylmethoxy)-2-methyl-5-(1-methyl-6-oxo-1,6-dihydropyridin-3-yl)phenyl]ethanesulfonamide], the Ki – broadly, a dissociation constant, usually derived from enzyme kinetics or from competition with a known ligand – is 629 nM in assay [1] (setting [3]) and 570 nM in assay [2] (setting [3]).

With `CCS(=O)(=O)c1ccc(OCC2CC2)c(-c2cc(NS(C)(=O)=O)c(=O)n(C)c2)c1` [Example 339, N-{5-[2-(cyclopropylmethoxy)-5-(ethylsulfonyl)phenyl]-1-methyl-2-oxo-1,2-dihydropyridin-3-yl}methanesulfonamide], the Ki in assay [1] (setting [3]) was 172 nM; in assay [2] (setting [3]) it was 971 nM.

As for `Cn1nc(-c2ccccc2Oc2ccc(C(F)(F)F)cc2)ccc1=O` [Example 7, 2-methyl-6-{2-[4-(trifluoromethyl)phenoxy]phenyl}pyridazin-3(2H)-one], the inhibition constant Ki in assay [1] (setting [3]) was 1970 nM; in assay [2] (setting [3]), 10400 nM.

For the compound `CCn1cc(-c2cc(=O)n(C)nc2-c2ccccc2Oc2ccccc2)cn1` [Example 212, 5-(1-ethyl-1H-pyrazol-4-yl)-2-methyl-6-(2-phenoxyphenyl)pyridazin-3(2H)-one], the Ki in assay [1] (setting [3]) is 89.8 nM; in assay [2] (setting [3]) it was 117 nM.

On to `CCOc1cc(=O)n(C)cc1-c1cc(N)ccc1Oc1ccc(F)cc1F` [Example 406, 5-[5-amino-2-(2,4-difluorophenoxy)phenyl]-4-ethoxy-1-methylpyridin-2(1H)-one], for which the Ki was 1550 nM in assay [1] (setting [4]) and 567 nM in assay [2] (setting [4]).

As for `COC(=O)C1CCN(c2cc(=O)n(C)nc2-c2ccccc2Oc2ccccc2)C1` (centres unmarked) [Example 48, methyl 1-[1-methyl-6-oxo-3-(2-phenoxyphenyl)-1,6-dihydropyridazin-4-yl]pyrrolidine-3-carboxylate], the Ki in assay [1] (setting [3]) was 9440 nM; in assay [2] (setting [3]), 1080 nM.

Turning to `COc1cc(=O)n(C)nc1-c1ccccc1OCC1CCCC1` [Example 46, 6-[2-(cyclopentylmethoxy)phenyl]-5-methoxy-2-methylpyridazin-3(2H)-one], the Ki in assay [1] (setting [3]) was 4390 nM; in assay [2] (setting [3]), 18000 nM.

For `Cn1nc(-c2ccccc2Oc2ccccc2)c(-c2ccc(C(=O)NCc3ccccc3)cc2)cc1=O` [Example 182, N-benzyl-4-[1-methyl-6-oxo-3-(2-phenoxyphenyl)-1,6-dihydropyridazin-4-yl]benzamide], the results for the Ki in assay [1] (setting [3]) and in assay [2] (setting [3]) were 531 nM and 174 nM, respectively.

As to `Cn1nc(-c2ccccc2Oc2ccccc2)c(-c2cccc(C(=O)N3CCCCC3)c2)cc1=O` [Example 157, 2-methyl-6-(2-phenoxyphenyl)-5-[3-(piperidin-1-ylcarbonyl)phenyl]pyridazin-3(2H)-one], the Ki in assay [1] (setting [3]) is 5510 nM; in assay [2] (setting [3]), 4750 nM.

As to `COc1cc(=O)n(C)nc1-c1ccccc1OCc1ccccn1` [Example 40, 5-methoxy-2-methyl-6-[2-(pyridin-2-ylmethoxy)phenyl]pyridazin-3(2H)-one], the Ki in assay [1] (setting [3]) is 9480 nM; in assay [2] (setting [3]) it was 20100 nM.

For `COc1cc(=O)n(C)nc1-c1ccccc1OC1CCCCC1` [Example 39, 6-[2-(cyclohexyloxy)phenyl]-5-methoxy-2-methylpyridazin-3(2H)-one], the values for the inhibition constant Ki in assay [1] (setting [3]) and in assay [2] (setting [3]) were 3540 nM and 14600 nM, respectively.

As to `Cn1nc(-c2ccccc2Oc2ccc(C#N)cc2)ccc1=O` [Example 3, 4-[2-(1-methyl-6-oxo-1,6-dihydropyridazin-3-yl)phenoxy]benzonitrile], the figures for the Ki in assay [1] (setting [3]) and in assay [2] (setting [3]) were 851 nM and 3430 nM, respectively.

For `CC(C)Cn1cc(-c2cc(=O)n(C)nc2-c2ccccc2Oc2ccccc2)cn1` [Example 206, 2-methyl-5-[1-(2-methylpropyl)-1H-pyrazol-4-yl]-6-(2-phenoxyphenyl)pyridazin-3(2H)-one], the Ki in assay [1] (setting [3]) is 412 nM; in assay [2] (setting [3]), 672 nM.

Regarding `Cn1nc(-c2ccccc2Oc2ccccc2)c(C2CCN(C(=O)OC(C)(C)C)CC2)cc1=O` [Example 86, tert-butyl 4-[1-methyl-6-oxo-3-(2-phenoxyphenyl)-1,6-dihydropyridazin-4-yl]piperidine-1-carboxylate], the Ki is > 13000 nM in assay [1] (setting [3]) and 2740 nM in assay [2] (setting [3]).

For `CCOC(=O)Nc1cc(-c2cc(S(=O)(=O)CC)ccc2OCC2CC2)cn(C)c1=O` [Example 338, ethyl{5-[2-(cyclopropylmethoxy)-5-(ethylsulfonyl)phenyl]-1-methyl-2-oxo-1,2-dihydropyridin-3-yl}carbamate], the Ki in assay [1] (setting [3]) was 114 nM; in assay [2] (setting [3]), 702 nM.

Turning to `Cn1nc(-c2ccccc2Oc2ccccc2)c(-c2ccc3c(c2)OCCO3)cc1=O` [Example 133, 5-(2,3-dihydro-1,4-benzodioxin-6-yl)-2-methyl-6-(2-phenoxyphenyl)pyridazin-3(2H)-one], the inhibitory constant (Ki) was 782 nM in assay [1] (setting [3]) and 159 nM in assay [2] (setting [3]).

As for `Cc1ccc(-c2cc(=O)n(C)nc2-c2ccccc2Oc2ccccc2)cn1` [Example 196, 2-methyl-5-(6-methylpyridin-3-yl)-6-(2-phenoxyphenyl)pyridazin-3(2H)-one], the Ki in assay [1] (setting [3]) is 1080 nM; in assay [2] (setting [3]), 670 nM.

For the compound `CC(C)COc1cccc(-c2cc(=O)n(C)nc2-c2ccccc2Oc2ccccc2)c1` [Example 110, 2-methyl-5-[3-(2-methylpropoxy)phenyl]-6-(2-phenoxyphenyl)pyridazin-3(2H)-one], the Ki was > 13000 nM in assay [1] (setting [3]) and 13500 nM in assay [2] (setting [3]).

On to `Cn1nc(-c2ccccc2Oc2ccccc2)c(-c2ccnc(N)c2)cc1=O` [Example 200, 5-(2-aminopyridin-4-yl)-2-methyl-6-(2-phenoxyphenyl)pyridazin-3(2H)-one], for which the Ki in assay [1] (setting [3]) was 344 nM; in assay [2] (setting [3]), 971 nM.

With `CCOC(=O)N1CCC(Oc2ccc(NS(=O)(=O)CC)cc2-c2cn(C)c(=O)cc2OCC)CC1` [Example 388, ethyl 4-{2-(4-ethoxy-1-methyl-6-oxo-1,6-dihydropyridin-3-yl)-4-[(ethylsulfonyl)amino]phenoxy}piperidine-1-carboxylate], the inhibition constant Ki in assay [1] (setting [4]) is 766 nM; in assay [2] (setting [4]), 1420 nM.

With `Cn1nc(-c2ccccc2Oc2ccc(S(C)(=O)=O)cc2)ccc1=O` [Example 8, 2-methyl-6-{2-[4-(methylsulfonyl)phenoxy]phenyl}pyridazin-3(2H)-one], the Ki is 8590 nM in assay [1] (setting [3]) and 17800 nM in assay [2] (setting [3]).

In the case of `COc1ccc(Oc2ccccc2-c2nn(C)c(=O)cc2OC)cc1` [Example 35, 5-methoxy-6-[2-(4-methoxyphenoxy)phenyl]-2-methylpyridazin-3(2H)-one], the results for the Ki in assay [1] (setting [3]) and in assay [2] (setting [3]) were 2390 nM and 1080 nM, respectively.

With `Cn1nc(-c2cc([N+](=O)[O-])ccc2Oc2ccccc2)ccc1=O` [Example 9, 2-methyl-6-(5-nitro-2-phenoxyphenyl)pyridazin-3(2H)-one], the Ki in assay [1] (setting [3]) was 10500 nM; in assay [2] (setting [3]) it was 9260 nM.

Regarding `CC(=O)N1CC=C(c2cc(=O)n(C)nc2-c2ccccc2Oc2ccccc2)CC1` [Example 84, 5-(1-acetyl-1,2,3,6-tetrahydropyridin-4-yl)-2-methyl-6-(2-phenoxyphenyl)pyridazin-3(2H)-one], the Ki in assay [1] (setting [3]) was 1020 nM; in assay [2] (setting [3]), 1010 nM.

On to `CCS(=O)(=O)c1ccc(OCC2CC2)c(-c2cc(NC(C)=O)c(=O)n(C)c2)c1` [Example 361, N-{5-[2-(cyclopropylmethoxy)-5-(ethylsulfonyl)phenyl]-1-methyl-2-oxo-1,2-dihydropyridin-3-yl}acetamide], for which the Ki in assay [1] (setting [3]) was 600 nM; in assay [2] (setting [3]), 1170 nM.

`CN1CCN(c2cc(-c3cc(=O)n(C)nc3-c3ccccc3Oc3ccccc3)ccn2)CC1` [Example 174, 2-methyl-5-[2-(4-methylpiperazin-1-yl)pyridin-4-yl]-6-(2-phenoxyphenyl)pyridazin-3(2H)-one]: the figures for the Ki in assay [1] (setting [3]) and in assay [2] (setting [3]) were 854 nM and 764 nM, respectively.

`COC(C)c1ccc(-c2cc(=O)n(C)nc2-c2ccccc2Oc2ccccc2)cc1` (centres unmarked) [Example 135, 5-[4-(1-methoxyethyl)phenyl]-2-methyl-6-(2-phenoxyphenyl)pyridazin-3(2H)-one]: the values for the Ki in assay [1] (setting [3]) and in assay [2] (setting [3]) were 604 nM and 411 nM, respectively.

Consider `Cn1nc(-c2ccccc2Oc2ccccc2)c(-c2ccc(C(O)C3CCCC3)cc2)cc1=O` (centres unmarked) [Example 74, 5-{4-[cyclopentyl(hydroxy)methyl]phenyl}-2-methyl-6-(2-phenoxyphenyl)pyridazin-3(2H)-one], for which the Ki is 632 nM in assay [1] (setting [3]) and 1050 nM in assay [2] (setting [3]).

Turning to `CC(C)CNC(=O)c1ccc(-c2cc(=O)n(C)nc2-c2ccccc2Oc2ccccc2)cc1` [Example 170, 4-[1-methyl-6-oxo-3-(2-phenoxyphenyl)-1,6-dihydropyridazin-4-yl]-N-(2-methylpropyl)benzamide], the Ki is 1670 nM in assay [1] (setting [3]) and 1620 nM in assay [2] (setting [3]).

For the compound `Cn1nc(-c2ccccc2Oc2ccccc2)c(-c2ccnc(N3CCOCC3)c2)cc1=O` [Example 153, 2-methyl-5-[2-(morpholin-4-yl)pyridin-4-yl]-6-(2-phenoxyphenyl)pyridazin-3(2H)-one], the Ki in assay [1] (setting [3]) was 5960 nM; in assay [2] (setting [3]), 3090 nM.

For `CN(C)c1ncc(-c2cc(=O)n(C)nc2-c2ccccc2Oc2ccccc2)cn1` [Example 192, 5-[2-(dimethylamino)pyrimidin-5-yl]-2-methyl-6-(2-phenoxyphenyl)pyridazin-3(2H)-one], the Ki is 1040 nM in assay [1] (setting [3]) and 395 nM in assay [2] (setting [3]).

(Values after patent US9561231B2 (AbbVie Inc., priority 2012, dated 2017).)
